From patent US20080200470A1, “Diaza- or Thiazadione Derivatives With Neuroprotective Activity” (Schwartz Pharma S.L, priority 2005, published 2008) come the findings set out here.

Where a name gives a salt, the structure may show the parent alone. Marks after values point to notes of the source that are not given here.

Series [1] has as its system primary cultures of rat hippocampus. Nature of the series: Neurotoxicity due to deprivation of trophic factors (serum deprivation), MTT. It counts as cell-based. The following applies: serum-free medium 48 hours. The method, then: (§1) The capacity to prevent neurotoxicity induced by hypoxia/hypoglycaemia in primary cultures of rat hippocampus (E18) was determined. […] After centrifuging at 700 g, the pellet was mechanically redispersed. The density of the cellular suspension was measured and aliquots were taken to culture on Petri dishes, previously coated with poly-lysine, using the same medium. […] Before the hypoxia, the compounds to be studied were added at variable times and concentrations.
In this case, an Eagle medium (DMEM) modified with 10% of calf serum was initially used and, after 10 days, the cultures were transferred to the DMEM culture deprived of calf serum.

Series [2] shares this test system. Nature of the series: Neurotoxicity induced by hypoxia/hypoglycaemia (oxygen-glucose deprivation), MTT. The following applies: glucose-free medium, 2 hours 95% N2/5% CO2, MTT. It counts as cell-based. On the procedure:
as §1

Series [3] relates to cerebral infarction after intraluminal occlusion of the middle cerebral artery (MCA) in rats. Put plainly: Focal ischemic model in rats, occlusion of the middle cerebral artery. It counts as in vivo. The following applies: rat, 40 μg/kg intravenously, 24 hours after ischemic damage.
Experimental: The rats were anaesthetised with halotan, maintaining their temperature at 37.5° C. using an electric blanket connected to a rectal probe and cannulating the left femoral artery to monitor blood pressure. The right carotid artery was exposed, occluding the extra-cranial branches, and a blunt nylon filament was introduced through the external carotid until reaching the level when the middle cerebral artery (MCA) branches.
The selected compounds were administered intravenously. 24 Hours after the ischemic damage, the rats were anaesthetised with ether, they were perfused with saline solution and were then decapitated, extracting the brains that were cut into 1.5 mm coronal slices. The slices were then incubated in 4% triphenyltetrazolium chloride (TTC), which reacts with the intact mitochondrial enzymes producing a red colour which contrasts with the paleness of the infracted area, permitting it to be viewed, subsequently maintaining it in 10% formalin. The volume of cerebral infarction (mm^3) was calculated by measuring, in an image analyser, the affected area in the areas of cerebral cortex irrigated by the MCA and in the striatum and multiplying the average value obtained in each slice by the thickness thereof.

A word on the melting point: it is the temperature of the solid-liquid transition. `O=C1C2CCCN2C(=O)N1CCCCNCc1ccc2ccccc2n1` (stereo not shown) had a melting point of 125 to 126 °C.

Molecule `O=C1C2CCCN2C(=O)N1CCCCNCCOc1cccc(Br)c1` (stereo not shown) (as salt: salt) registered a melting point of 140 to 143 °C.

Regarding `CCc1ccccc1OCCNCCCCN1C(=O)C2CCCN2C1=O` (stereo not shown) (as salt: salt), the melting point was in the range of 115 to 118 °C.

As for `CCOc1ccccc1OCCNCCCCN1C(=O)CSC1=O` (as salt: salt) [ff, 3-[4-[2-(o-Ethoxyphenoxy)ethylamino]butyl]-2,4-dioxothiazolidine], the melting point was in the range of 70 to 74 °C.

Take `CCOc1ccccc1OCCNCCCCCCCCN1C(=O)CSC1=O` (as salt: salt) [hh, 3-[8-[2-(o-Ethoxyphenoxy)ethylamino]octyl]-2,4-dioxothiazolidine]: the melting point was in the range of 105 to 108 °C.

In turn, `O=C1C2CCCCN2C(=O)N1CCCCNCc1ccc2ccccc2n1` (stereo not shown) (as salt: salt) [kk, 2-[4-[(2-Quinolyl)methylamino]butyl]-1,3-dioxoperhydroimidazo[1,5-a]pyridine] had a melting point of 206 to 208 °C.

Regarding `O=C1C2CCCCN2C(=O)N1CCCCCCNCc1ccc2ccccc2n1` (stereo not shown) (as salt: salt) [ll, 2-[6-[(2-Quinolyl)methylamino]hexyl]-1,3-dioxoperhydroimidazo[1,5-a]pyridine], the melting point lay in the range of 176 to 188 °C.

`O=C1C2CCCN2C(=O)N1CCCCNCCOc1ccccc1Br` (stereo not shown) (as salt: salt) [o, 2-[4-[2-(o-Bromophenoxy)ethylamino]butyl]-1,3-dioxoperhydropyrrolo[1,2-c]imidazole] returned a melting point of 98 to 99 °C.

With `O=C1c2ccccc2S(=O)(=O)N1CCCCNC[C@H]1CCc2ccccc2O1` [(−)-BAYx3702], the “Protection (%) Serum Deprivation” value in series [1] worked out at 31.0 ± 2.9%. Further, the “Protection (%) Oxygen-glucose deprivation” value in series [2] was determined as 77.5 ± 8.6%. In series [3], the “Infarcted Volumen Cortical” value was 271.2 ± 54.7* mm^3, the “Infarcted Volumen Subcortical” value came to 105.5 ± 9.3 mm^3 and the “Infarcted Volumen Total” value is on record as 376.7 ± 57.8* mm^3.

As to `CCCN(CCC)C1CCc2cccc(O)c2C1` (stereo not shown) [Compound 8-OH-DPAT, 8-OH-DPAT], the “Protection (%) Serum Deprivation” value in series [1] is recorded as 44.0 ± 1.4%. Moreover, in series [2], the “Protection (%) Oxygen-glucose deprivation” value was found to be 54.0 ± 3.5%.

Consider (±)-BAYx3702, for which, in series [1], the “Protection (%) Serum Deprivation” value is recorded as 25.9 ± 2.5%.
